Test results as given in paper PMC10892871 (Viruses, 2024).
Several values for one entry are separate records, joined by “and”; a condition that tells them apart may be missing. Identical values can stand only once.

Tested on: Omicron BQ.1.1 SARS-CoV-2 variant
Format: cell-based

## O=c1nc(NO)ccn1[C@@H]1O[C@H](CO)[C@@H](O)[C@H]1O [EIDD-1931, reference compound]
read-out: IC50 vs. BQ.1.1 Mean ± SD
  IC50: 1590 nM and 1600 nM
read-out: IC90 vs. BQ.1.1 Mean ± SD
  IC90: 1800 ± 700 nM
